Reference: patent US11453669B2, “Polycyclic pyridone derivative” (Shionogi & Co., Ltd., priority 2018, dated 2022)
Where two headings read alike, the source gives them in different places.

Legend:
[1] = tested on: HIV; test: Anti-HIV activity (MT-4 cells, MTT); assay type: cell-based; details: Human immunodeficiency virus 1, MT4, 96 h, read-out: EC50_nM (50% HIV inhibitory concentration)
Procedure: Serial dilutions of a test sample were prepared in a 96-well microplate (50 μL/well). 2.5×10^5 cells/mL of an MT-4 cell suspension was dispensed at 100 μL/well to the plate containing the test sample. Then, an HIV virus solution was dispensed at 50 μL/well. The plate was mixed with a plate mixer and cultured for 4 days in a CO2 incubator. An MTT (3-(4,5-dimethylthiazol-2-yl)-2,5-diphenyltetrazolium bromide) solution was dispensed at 30 μL/well. The plate was reacted for 1 hour in a CO2 incubator. 150 μL of the supernatant was removed from each well so as not to take up the cells. 150 μL of a cell lysis solution was added to each well and well mixed with a plate mixer until the cells were completely lysed. The absorbance of the mixed plate was measured at two wavelengths of 560 nm and 690 nm using a microplate reader.

[2] = assay type: in vitro ADME; details: human, 30 min, 0.5 μmol/L, pH 7.4
Procedure: Using commercially available pooled human liver microsomes, a compound of the present invention was reacted for a constant time, and a remaining rate was calculated by comparing a reacted sample and an unreacted sample, thereby, a degree at which the compound of the present invention was metabolized in liver was assessed.
A reaction was performed (oxidative reaction) at 37° C. for 0 minute or 30 minutes in the presence of 1 mmol/L NADPH in 0.2 mL of a buffer solution (50 mmol/L Tris-HCl pH 7.4, 150 mmol/L potassium chloride, 10 mmol/L magnesium chloride) containing 0.5 mg protein/mL of human liver microsomes. After the reaction, 50 μL of the reaction solution was added to 100 μL of a solution of methanol/acetonitrile=1/1 (v/v), and the mixture was mixed and centrifuged at 3000 rpm for 15 minutes. The compound of the present invention in the centrifugation supernatant was quantified by LC/MS/MS or solid-phase extraction (SPE)/MS. The amount of the compound of the present invention remaining after the reaction was calculated with the amount of the compound at 0 minutes of the reaction defined as 100%.

[3] = tested on: HIV mutant strain 2 (E92Q/E138T/G140S/Q148H); assay type: cell-based; details: FC=EC50 of the mutant strain/EC50 of the wild strain, HeLa-CD4 cells
Procedure: (§1) Serial dilutions of a test sample were prepared in a 96-well microplate (50 μL/well). 2.5×10^5 cells/mL of a HeLa-CD4 cell suspension was dispensed at 100 μL/well to the plate containing the test sample. Then, an HIV virus solution (wild strain and mutant strain) was dispensed at 50 μL/well. The plate was mixed with a plate mixer and cultured for 3 days in a CO2 incubator. The culture supernatant in each well was removed by suction. A cell lysis buffer in a reporter assay kit was dispensed at 100 μL/well, and the plate was frozen in a freezer (−80° C.). The plate frozen in a freezer was thawed at room temperature, then mixed with a plate mixer, and centrifuged at 1,200 rpm for 5 minutes. The supernatant of each well was dispensed at 20 μL/well to a 96-well microplate (BLACK). A chemiluminescent in the reporter assay kit reagent was dispensed at 100 μL/well and reacted at room temperature for approximately 1 hour. Then, luminescence intensity was measured using MicroBeta TRILUX.

[4] = tested on: HIV mutant strain 1 (E138K/G140S/Q148H/N155H); assay type: cell-based; details: FC=EC50 of the mutant strain/EC50 of the wild strain, HeLa-CD4 cells
Procedure: as §1

[5] = MT-4 cells, cultured 4 days, MTT

| EC50 [1, 5] | Structure (SMILES) | also measured |
| --- | --- | --- |
| 7.1 nM | CCN1C(=O)c2c(O)c(=O)c(-c3ncc(Cc4ccc(F)cc4F)s3)cn2N2CCCC[C@H]12 [Compound I-003] |  |
| 3.2 nM | CCN1C(=O)c2c(O)c(=O)c(-c3nnc(Cc4cccc(Cl)c4F)s3)cn2N2CCCC[C@H]12 [Compound I-005] |  |
| 2.7 nM | CCN1C(=O)c2c(O)c(=O)c(-c3nnc(Cc4cccc(Cl)c4F)s3)cn2N2CCCC[C@@H]12 [Compound I-006] |  |
| 2.2 nM | CCN1C(=O)c2c(O)c(=O)c(-c3nnc(Cc4c(F)cc(F)cc4F)s3)cn2N2CCCC[C@H]12 [Compound I-007] |  |
| 7.2 nM | CCN1C(=O)c2c(O)c(=O)c(-c3nnc(Cc4ccc(F)c(Cl)c4)s3)cn2N2CCCC[C@H]12 [Compound I-009] |  |
| 3.8 nM | CCN1C(=O)c2c(O)c(=O)c(-c3nnc(Cc4ccc(F)c(Cl)c4)s3)cn2N2CCCC[C@@H]12 [Compound I-010] |  |
| 5 nM | CCN1C(=O)c2c(O)c(=O)c(-c3nnc(Cc4cc(F)c(F)cc4F)s3)cn2N2CCCC[C@H]12 [Compound I-011] |  |
| 3 nM | CCN1C(=O)c2c(O)c(=O)c(-c3nnc(Cc4ccc(F)c(F)c4F)s3)cn2N2CCCC[C@H]12 [Compound I-013] |  |
| 1.3 nM | CCN1C(=O)c2c(O)c(=O)c(-c3nnc(Cc4ccc(F)c(F)c4F)s3)cn2N2CCCC[C@@H]12 [Compound I-014] |  |
| 4.3 nM | CN1C(=O)c2c(O)c(=O)c(-c3nnc(Cc4cccc(Cl)c4F)s3)cn2N2CCCC[C@H]12 [II-001] |  |
| 1.6 nM | CN1C(=O)c2c(O)c(=O)c(-c3nnc(Cc4cccc(Cl)c4F)s3)cn2N2CCCC[C@@H]12 [II-002] |  |
| 0.7 nM | CN1C(=O)c2c(O)c(=O)c(-c3nnc(Cc4c(F)cc(F)cc4F)s3)cn2N2CCCC[C@@H]12 [II-004] |  |
| 9.7 nM | CCN1C(=O)c2c(O)c(=O)c(-c3cnn(Cc4ccc(F)cc4F)c3)cn2N2CCCC[C@H]12 [II-005] |  |
| 14 nM | CCN1C(=O)c2c(O)c(=O)c(-c3cnn(Cc4cccc(Cl)c4F)c3)cn2N2CCCC[C@H]12 [II-007] |  |
| 4.5 nM | CCN1C(=O)c2c(O)c(=O)c(-c3cnn(Cc4cccc(Cl)c4F)c3)cn2N2CCCC[C@@H]12 [II-008] |  |
| 61 nM | CCN1C(=O)c2c(O)c(=O)c(-c3cnn(Cc4ncc(Cl)cc4F)c3)cn2N2CCCC[C@H]12 [II-014] |  |
| 1.6 nM | CCN1C(=O)c2c(O)c(=O)c(-c3nnc(Cc4ccc(F)cc4F)s3)cn2N2CCOC[C@H]12 [II-015] |  |
| 0.19 nM | CCN1C(=O)c2c(O)c(=O)c(-c3nnc(Cc4ccc(F)cc4F)s3)cn2N2CCOC[C@@H]12 [II-016] |  |
| 1.1 nM | CCN1C(=O)c2c(O)c(=O)c(-c3nnc(Cc4c(F)cc(F)cc4F)s3)cn2N2CCOC[C@H]12 [II-017] |  |
| 2.1 nM | CCN1C(=O)c2c(O)c(=O)c(-c3nnc(Cc4ccc(F)cc4)s3)cn2N2CCOC[C@H]12 [II-019] |  |
| 0.7 nM | CCN1C(=O)c2c(O)c(=O)c(-c3nnc(Cc4ccc(F)cc4)s3)cn2N2CCOC[C@@H]12 [II-020] |  |
| 2.6 nM | CCN1C(=O)c2c(O)c(=O)c(-c3nnc(Cc4ccc(F)cc4F)s3)cn2N2C[C@@H](C)C[C@H]12 [II-021] |  |
| 0.67 nM | CCN1C(=O)c2c(O)c(=O)c(-c3nnc(Cc4ccc(F)cc4F)s3)cn2N2CC[C@H](C)[C@@H]12 [II-022] |  |
| 0.13 nM | C[C@H]1CCN2[C@@H](C1)N(C)C(=O)c1c(O)c(=O)c(-c3nnc(Cc4ccc(F)cc4F)s3)cn12 [II-032] |  |
| 0.13 nM | C[C@@H]1CCN2[C@@H](C1)N(C)C(=O)c1c(O)c(=O)c(-c3nnc(Cc4ccc(F)cc4F)s3)cn12 [II-034] |  |
| 1.4 nM | CCN1C(=O)c2c(O)c(=O)c(-c3nnc(Cc4ccc(F)cc4F)s3)cn2N2C[C@H]3CC[C@H](O3)[C@H]12 [II-047] |  |
| 1.6 nM | CCN1C(=O)c2c(O)c(=O)c(-c3nnc(Cc4ccc(F)cc4)s3)cn2N2C[C@H]3CC[C@H](O3)[C@H]12 [II-049] |  |
| 1 nM | CC(C)N1C(=O)c2c(O)c(=O)c(-c3nnc(Cc4ccc(F)cc4F)s3)cn2N2CC[C@@H](C)C[C@@H]12 [II-059] |  |
| 1.1 nM | CCN1C(=O)c2c(O)c(=O)c(-c3nnc(Cc4ccc(F)cc4F)s3)cn2N2[C@H](C)CCC[C@@H]12 [II-066] |  |

Continued, compound first:

| Structure (SMILES) | EC50 [1, 5] | also measured |
| --- | --- | --- |
| CN1C(=O)c2c(O)c(=O)c(-c3nnc(Cc4ccc(F)cc4F)s3)cn2N2CCOC[C@H]12 [II-009] |  | EC50 [1]: 1.3 nM |
| CN1C(=O)c2c(O)c(=O)c(-c3nnc(Cc4ccc(F)cc4F)s3)cn2N2CCOC[C@@H]12 [II-010] |  | residual rate [2]: 106; EC50 [1]: 1.3 nM; FC (fold change) for mutant strain 2 [3]: 22; FC (fold change) for mutant strain 1 [4]: 25 |
| CN1C(=O)c2c(O)c(=O)c(-c3nnc(Cc4c(F)cc(F)cc4F)s3)cn2N2CCOC[C@H]12 [II-011] | 0.5 nM |  |
| CN1C(=O)c2c(O)c(=O)c(-c3nnc(Cc4c(F)cc(F)cc4F)s3)cn2N2CCOC[C@@H]12 [II-012] | 0.25 nM |  |
| CCN1C(=O)c2c(O)c(=O)c(-c3nnc(Cc4c(F)cc(F)cc4F)s3)cn2N2C[C@@H](C)C[C@H]12 [II-025] | 0.9 nM |  |
| CCN1C(=O)c2c(O)c(=O)c(-c3nnc(Cc4c(F)cc(F)cc4F)s3)cn2N2CC[C@H](C)[C@@H]12 [II-026] | 0.39 nM |  |
| CCN1C(=O)c2c(O)c(=O)c(-c3nnc(Cc4c(F)cc(F)cc4F)s3)cn2N2C[C@@H](C)C[C@@H]12 [II-027] |  | residual rate [2]: 90.5; EC50 [1]: 1.9 nM; FC (fold change) for mutant strain 2 [3]: 7; FC (fold change) for mutant strain 1 [4]: 4.7 |
| C[C@@H]1CC[C@@H]2N(C)C(=O)c3c(O)c(=O)c(-c4nnc(Cc5ccc(F)cc5F)s4)cn3N12 [II-028] | 0.13 nM |  |
| C[C@@H]1CC[C@H]2N(C)C(=O)c3c(O)c(=O)c(-c4nnc(Cc5ccc(F)cc5F)s4)cn3N12 [II-029] |  | residual rate [2]: 85.3; EC50 [1]: 0.66 nM; FC (fold change) for mutant strain 2 [3]: 6.5; FC (fold change) for mutant strain 1 [4]: 7.2 |
| C[C@@H]1CC[C@@H]2N(C)C(=O)c3c(O)c(=O)c(-c4nnc(Cc5c(F)cc(F)cc5F)s4)cn3N12 [II-030] | 1.4 nM |  |
| C[C@@H]1CC[C@H]2N(C)C(=O)c3c(O)c(=O)c(-c4nnc(Cc5c(F)cc(F)cc5F)s4)cn3N12 [II-031] | 0.13 nM |  |
| CN1C(=O)c2c(O)c(=O)c(-c3nnc(Cc4c(F)cc(F)cc4F)s3)cn2N2C[C@@H]3CC[C@@H](O3)[C@@H]12 [II-035] | 0.28 nM |  |
| CN1C(=O)c2c(O)c(=O)c(-c3nnc(Cc4c(F)cc(F)cc4F)s3)cn2N2C[C@H]3CC[C@H](O3)[C@H]12 [II-036] | 2 nM |  |
| CN1C(=O)c2c(O)c(=O)c(-c3nnc(Cc4ccc(F)cc4F)s3)cn2N2Cc3ccccc3[C@H]12 [II-039] | 3.8 nM |  |
| CN1C(=O)c2c(O)c(=O)c(-c3nnc(Cc4ccc(F)cc4F)s3)cn2N2Cc3ccccc3[C@@H]12 [II-040] | 1.3 nM |  |
| C[C@H]1CC[C@H]2N(C)C(=O)c3c(O)c(=O)c(-c4nnc(Cc5c(F)cc(F)cc5F)s4)cn3N2C1 [II-042] | 0.2 nM |  |
| C[C@@H]1CCC[C@H]2N(C)C(=O)c3c(O)c(=O)c(-c4nnc(Cc5ccc(F)cc5F)s4)cn3N12 [II-043] |  | residual rate [2]: 103; EC50 [1]: 3.5 nM; FC (fold change) for mutant strain 2 [3]: 11; FC (fold change) for mutant strain 1 [4]: 6.8 |
| CCN1C(=O)c2c(O)c(=O)c(-c3nnc(Cc4c(F)cc(F)cc4F)s3)cn2N2[C@H](C)CCC[C@@H]12 [II-044] |  | residual rate [2]: 88.5; EC50 [1]: 1.4 nM; FC (fold change) for mutant strain 2 [3]: 26; FC (fold change) for mutant strain 1 [4]: 11 |
| CCN1C(=O)c2c(O)c(=O)c(-c3nnc(Cc4c(F)cc(F)cc4F)s3)cn2N2C[C@H]3CC[C@H](O3)[C@H]12 [II-045] | 2 nM |  |
| CC(C)N1C(=O)c2c(O)c(=O)c(-c3nnc(Cc4c(F)cc(F)cc4F)s3)cn2N2C[C@H]3CC[C@H](O3)C12 (some centres unmarked) [II-053] | 1.3 nM |  |
| CC(C)N1C(=O)c2c(O)c(=O)c(-c3nnc(Cc4c(F)cc(F)cc4F)s3)cn2N2CC[C@@H](C)C[C@@H]12 [II-060] | 2.7 nM |  |
